Measured values from patent US6713043B2 (priority 1996, dated 2004).
In brackets after ≈: the same amount, converted by molar mass. Entries after “also recorded” stand apart in the source; their conditions may differ.

Key:
L. pneumophila [1] = assay: microbe, parasite or virus in culture; format: cell-based, Legionella pneumophila; settings: for MIC: Legionella pneumophila, 48 h, read-out: MIC (minimum concentration at which no growth occurred)
wild type L. pneumophila = format: cell-based, Legionella pneumophila
F4b [2] = format: cell-based, Legionella pneumophila
F4b [3] = format: cell-based, Legionella pneumophila; remark: listed apart in the source
F4b in HL-60 cells = format: cell-based, Legionella pneumophila
[4] = system: L. pneumophila in mouse J774 macrophages; format: cell-based, Legionella pneumophila
L. pneumophila [5] = format: cell-based, Legionella pneumophila
F4b in human macrophages = format: cell-based, Legionella pneumophila
L. pneumophila [6] = format: cell-based, Legionella pneumophila; remark: listed apart in the source
[7] = in vivo; cited from earlier work
[8] = system: L. pneumophila in human macrophages; format: cell-based, Legionella pneumophila
F4b [9] = format: cell-based, Legionella pneumophila; remark: listed apart in the source
[10] = system: L. pneumophila in human monocytes; format: cell-based, Legionella pneumophila
[11] = system: L. pneumophila infected HL-60 cells; format: cell-based, human
L. pneumophila [12] = format: cell-based, Legionella pneumophila; remark: listed apart in the source
P. aeruginosa = format: cell-based, Psuedomonas aeruginosa
[13] = system: L. pneumophila in HL-60 cells; format: cell-based, Legionella pneumophila
HL-60 cells = settings: human

Question: Which MIC (L. pneumophila [1]) does the source give for `CCCN(CCC)S(=O)(=O)c1ccc(C(=O)O)cc1` [Probenecid, probenecid] here?
Answer: 160 µg/mL (≈ 561 µM)

Question: With `CCc1cc(C(N)=S)ccn1` [ethionamide] as the compound, how does the “sensitivity of wild type L. pneumophila relative to F4b (zone of inhibition)” value (wild type L. pneumophila) read?
Answer: twice as sensitive

Question: With `NNC(=O)c1ccncc1` [isoniazid] as the compound, how does the “sensitivity (zone of inhibition)” value (wild type L. pneumophila) read?
Answer: no sensitivity

Question: What about the “sensitivity (zone of inhibition)” value (F4b [2]) of the same compound?
Answer: sensitive

Question: For `CC(C)(Oc1ccc(Cl)cc1)C(=O)O` [clofibric acid], which MIC (L. pneumophila [1]) is on record?
Answer: 125 µg/mL (≈ 582 µM)

Question: Which “effect on fatty acid profile” value (F4b [3]) does the source give for `Cc1ccc(C)c(OCCCC(C)(C)C(=O)O)c1` [GFZ, Gemfibrozil] here?
Answer: did not affect the fatty acid profile

Question: What about the “inhibition of intracellular growth (CFU)” value (F4b in HL-60 cells) of the same compound?
Answer: one log

Question: And the “inhibition of intracellular growth (CFU)” value [4]?
Answer: one log; also recorded: partially inhibited

Question: And the “effect on fatty acid profile” value (L. pneumophila [5])?
Answer: decreased peak areas for several typical L. pneumophila fatty acids

Question: And the “inhibition of intracellular growth (CFU)” value (F4b in human macrophages)?
Answer: one log

Question: And the “inclusion accumulation (EM)” value (L. pneumophila [6])?
Answer: accumulated granules

Question: What about the “concentration of gemfibrozil used in humans treated for hyperlipidemia” value [7] of the same compound?
Answer: 15 to 30 µg/mL

Question: And the “inhibition of intracellular growth (CFU)” value [8]?
Answer: partially inhibited

Question: What about the “inclusion accumulation (EM)” value (F4b [9]) of the same compound?
Answer: no apparent difference in the number or size of inclusions

Question: What about the “inhibition of intracellular growth (CFU)” value [10] of the same compound?
Answer: one log; also recorded: partially inhibited

Question: And the “viability of L. pneumophila infected HL-60 cells (MTT reduction)” value [11]?
Answer: increased viability

Question: What about the “GFZ concentration at which no growth was seen on the CYE plates” value (L. pneumophila [12]) of the same compound?
Answer: 400 µg/mL

Question: What about the bacteriocidal or bacteriostatic (L. pneumophila [12]) of the same compound?
Answer: bacteriostatic

Question: What about the “growth in AYE broth in presence of GFZ” value (L. pneumophila [1]) of the same compound?
Answer: inhibited L. pneumophila growth

Question: What about the MIC (L. pneumophila [1]) of the same compound?
Answer: 10 µg/mL (≈ 39.9 µM)

Question: What about the “susceptibility to GFZ” value (P. aeruginosa) of the same compound?
Answer: not susceptible

Question: What about the “inhibition of intracellular growth (CFU)” value [13] of the same compound?
Answer: partially inhibited; also recorded: three logs

Question: And the “effect on HL-60 cell viability” value (HL-60 cells)?
Answer: did not affect HL-60 cell viability
